Measured values: patent US20120071537A1, “New Oral Formulation” (priority 1998, published 2012)

Columns and labels:
[1] = system: equine intestine; assay: Gastro-intestinal motility after colic surgery (post-operative ileus) in horses; type: in vivo; conditions: i.v. or i.m., 0.01 to 10 mg/kg every 8 to 24 h
Experimental: 20 horses having colic syndrome are submitted to abdominal surgery. During surgery supportive therapy is applied to them. At the end of surgery, a specific 5-HT4 receptor agonist or partial agonist, e.g., Compound A, is administered i.v. or i.m., e.g. at a dose of from 0.01 to 10 mg/kg. This dose is repeated every 8 to 24 h until spontaneous defecation is observed. Gastro-intestinal motility is evaluated based e.g. on the presence or absence of gastric reflux as determined by nasogastric intubation, occurrence of borborygmi and timing of defecation after the first injection of the test compound.

[2] = Solubility in water; type: physicochemical; conditions: at 25° C. in water
Experimental: By “poorly soluble” is meant an active agent having a solubility in aqueous media more than 0.001% and less than 10%, e.g., less than 1%, e.g., less than 0:1%, e.g., less than 0.05%, e.g., less than 0.02%, at room temperature, e.g., 25° C.
(§1) which is referred hereinafter as Compound A, or a pharmaceutically acceptable salt form thereof, e.g., the hydrogen maleate (hereinafter “hml”) salt.

[3] = Acid sensitivity (degradation under slightly acidic conditions); type: physicochemical
From the text: Examples of compounds are known in the art and may be ascertained by routine experimentation.
as §1

[4] = system: sensory perception of rectal distension; assay: Colonic perfusion manometry with balloon distension, sensation threshold in fasted healthy volunteers; type: in vivo; conditions: 2-12 mg p.o., assessed 30 to 90 min after dosing
Experimental: Intraluminal pressures and reflexes in the last 60 cm of the colon of 10 fasted healthy volunteers are measured by means of perfusion manometry. Three latex balloons positioned at 50, 30 and 10 cm, allow volume stimulation. Basal values of colonic intraluminal pressures and reflexes are established. Subsequently, reflex inhibitory relaxations of the internal anal sphincter is triggered by inflating the balloons by 10 ml increments up to a maximum volume of 150 ml. During the inflation phase, two parameters are evaluated: a) the reflux threshold (volume able to induce a substantial pressure decrease of the internal anal sphincter); and b) the sensation threshold (volume able to induce a conscious defecation reflex). After the basal recordings, each subject is given a 5-HT4 receptor agonist, partial agonist or antagonist, e.g., Compound A, p.o. and 30 to 90 min later the colonic intraluminal pressure and reflexes are assessed again by the same method.

[5] = Dissolution characteristics of oral tablet composition in water or USP buffers pH 6.8 and 7.5; type: physicochemical; conditions: composition comprising Tegaserod
From the text: In a further aspect the present invention provides a pharmaceutical oral, e.g., tablet, composition comprising one of the active agents cited above, e.g., a 5-HT4 agonist, partial agonist or antagonist, e.g., Tegaserod, said composition having dissolution characteristics in water or in USP buffers pH 6.8 and 7.5 of
For example a composition according to the invention, e.g., comprising Tegaserod as the active agent, may have dissolution characteristics in water or in USP buffers pH 6.8 and 7.5 of: […]

[6] = system: rectal afferents; assay: Single unit activity of rectal afferent fibres during barostat-controlled rectal distension in decerebrate cats; type: in vivo; conditions: i.v., incremental doses from 0.15 to 1.2 mg/kg
Experimental: Decerebrate, anaesthesia-free cats under continuous monitoring of blood pressure are paralysed by alcuronium chloride dissolved in rheomacrodex i.v. (200 μg/kg initially and supplementary doses of 100 μg/kg, if necessary), and artificially ventilated. Single unit activity of afferent fibres are recorded in a monopolar fashion from peripheral endings of centrally cut filaments of sacral dorsal roots. Tension receptors are identified by probing of their receptive fields in the wall of the mobilised rectum. Thereafter, the response of the units to barostat-controlled rectal ramp-distension is determined. The quantitative response characteristics of the units is evaluated with respect to distension pressure and resulting rectal diameter. Alternatively, the response of the units to pressure-induced peristalsis is measured. After obtaining 2 distension profiles (5 min each) and/or 10 min of peristalsis under control conditions, a 5-HT4 receptor agonist, partial agonist or antagonist, e.g., Compound A, or vehicle is applied i.v. and the protocol is repeated. Subsequently, the activity of additional units is recorded in the presence of a 5-HT4 receptor agonist, partial agonist or antagonist, e.g., Compound A, or vehicle according to the distension/peristalsis protocol. […]

solubility [2]: about 0.02%
acid sensitivity [3]: acid sensitive
amount (percentage) dissolved ([5]; time 5 minutes): 48.9 percentage
amount (percentage) dissolved ([5]; time 15 minutes): 95.5 percentage
amount (percentage) dissolved ([5]; time 30 minutes): 99.7 percentage
amount (percentage) dissolved ([5]; time 60 minutes): 100 percentage
SMILES: CCCCCNC(=N)NN=Cc1c[nH]c2ccc(OC)cc12 [Compound A, 3-(5-methoxy-1H-indol-3-yl-methylene)-N-pentylcarbazimidamide]
restoration of normal motility function of the equine intestine [1]: effective in restoring normal motility function
sensation threshold (volume able to induce a conscious defecation reflex) [4]: significantly reduced
distension pressure at which the most prominent inhibition of firing occurs [6]: 50 mmHg
dose giving half-maximal reduction of the firing rate of rectal afferents [6]: about 0.7 mg/kg
